Reference: PubChem BioAssay (NCI)
Several values for one entry are separate records, joined by “and”; a condition that tells them apart may be missing. Identical values can stand only once.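 Grown in 96-well plates, cells were treated for 48 hours with each compound at five concentrations. Insufficient inhibition: endpoint recorded as highest concentration tested. GI50 marks 50% less growth. TGI marks complete inhibition of growth.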

Tests used:
Assay in all cases: growth of human tumour cells (NCI), 48 h
[1] = test system: SW-620 colon
[2] = test system: SNB-75 CNS
[3] = test system: MALME-3M melanoma
[4] = test system: NCI/ADR-RES ovarian
[5] = test system: HOP-92 NSCLC
[6] = test system: SNB-19 CNS
[7] = test system: IGROV1 ovarian
[8] = test system: HS 578T breast
[9] = test system: OVCAR-8 ovarian
[10] = test system: MDA-MB-231 breast
[11] = test system: PC-3 prostate
[12] = test system: HL-60(TB) leukemia
[13] = test system: EKVX NSCLC
[14] = test system: OVCAR-4 ovarian
[15] = test system: ACHN renal
[16] = test system: OVCAR-5 ovarian
[17] = test system: UO-31 renal
[18] = test system: MDA-MB-435
[19] = test system: TK-10 renal
[20] = test system: M14 melanoma
[21] = test system: HCT-15 colon
[22] = test system: HOP-62 NSCLC
[23] = test system: NCI-H522 lung
[24] = test system: LOX IMVI melanoma
[25] = test system: NCI-H226 lung
[26] = test system: SF-295 CNS
[27] = test system: BT-549 breast
[28] = test system: CCRF-CEM leukemia
[29] = test system: HCC-2998 colon
[30] = test system: NCI-H460 lung
[31] = test system: MCF7 breast
[32] = test system: KM12 colon
[33] = test system: T-47D breast
[34] = test system: SF-539 CNS
[35] = test system: RXF 393 renal
[36] = test system: U251 CNS
[37] = test system: SK-MEL-5 melanoma
[38] = test system: NCI-H23 lung
[39] = test system: UACC-257 melanoma
[40] = test system: CAKI-1 renal
[41] = test system: 786-0 renal
[42] = test system: UACC-62 melanoma
[43] = test system: SR leukemia
[44] = test system: DU-145 prostate
[45] = test system: SK-OV-3 ovarian
[46] = test system: SF-268 CNS
[47] = test system: MOLT-4 leukemia
[48] = test system: SK-MEL-28 melanoma
[49] = test system: K-562 leukemia
[50] = test system: HT29 colon
[51] = test system: RPMI-8226 leukemia
[52] = test system: OVCAR-3 ovarian
[53] = test system: SN12C renal
[54] = test system: HCT-116 colon
[55] = test system: COLO 205 colon
[56] = test system: A549 NSCLC
[57] = test system: SK-MEL-2 melanoma

**Q.** What does the source list for `CN1CCC(C(=O)Nc2n[nH]c3nc(-c4ccc(O)cc4)c(Br)cc23)CC1`?
**A.** GI50 [1]: 0.975 µM and 0.254 µM; TGI [1]: > 25 µM; GI50 [2]: 0.207 µM and 0.537 µM; TGI [2]: 8.38 µM and 7.52 µM; GI50 [3]: 3.56 µM and 4.97 µM; TGI [3]: 11.1 µM and 11.7 µM; GI50 [4]: 24.9 µM and > 25 µM; TGI [4]: > 25 µM; GI50 [5]: 0.97 µM; TGI [5]: 5.04 µM; GI50 [6]: 1.12 µM and 2.97 µM; TGI [6]: > 25 µM; GI50 [7]: 5.13 µM and 6.36 µM; TGI [7]: > 25 µM; GI50 [8]: 1.15 µM and 0.208 µM; TGI [8]: > 15.1 µM; GI50 [9]: 0.965 µM and 1.77 µM; TGI [9]: > 20.2 µM; GI50 [10]: 1.4 µM and 3.97 µM; TGI [10]: 11.3 µM and 16 µM; GI50 [11]: 1.08 µM and 1.64 µM; TGI [11]: > 22.2 µM; GI50 [12]: 0.988 µM and 0.333 µM; TGI [12]: 4 µM and 1.25 µM; GI50 [13]: 6.62 µM and 2.51 µM; TGI [13]: > 25 µM; GI50 [14]: 0.986 µM and 1.17 µM; TGI [14]: > 12.4 µM and 6.27 µM; GI50 [15]: 5.37 µM and 6.3 µM; TGI [15]: > 25 µM; GI50 [16]: 7.83 µM and 10.4 µM; TGI [16]: > 25 µM; GI50 [17]: 6.85 µM and 7.86 µM; TGI [17]: > 22.4 µM; GI50 [18]: 1.57 µM and 1.45 µM; TGI [18]: 5.58 µM and 5.61 µM; GI50 [19]: 3.16 µM and 6.15 µM; TGI [19]: 15.3 µM and 17.1 µM; GI50 [20]: 3.47 µM and 4.68 µM; TGI [20]: 8.42 µM and 9.62 µM; GI50 [21]: 6.77 µM and 9.83 µM; TGI [21]: > 25 µM; GI50 [22]: 2.39 µM and 2.43 µM; TGI [22]: > 22.6 µM and 15.8 µM; GI50 [23]: 0.599 µM and 0.603 µM; TGI [23]: 1.52 µM and 1.62 µM; GI50 [24]: 0.574 µM and 0.661 µM; TGI [24]: 5.45 µM and > 12.2 µM; GI50 [25]: 0.674 µM and 1.06 µM; TGI [25]: 8.55 µM and > 15.5 µM; GI50 [26]: 3.94 µM and 3.41 µM; TGI [26]: 20.1 µM and 22.3 µM; GI50 [27]: 1.6 µM and 2.31 µM; TGI [27]: 16.4 µM and 16.9 µM; GI50 [28]: 0.835 µM and 0.996 µM; TGI [28]: > 25 µM; GI50 [29]: 1.08 µM and 1.32 µM; TGI [29]: 5.72 µM and 8.32 µM; GI50 [30]: 1.97 µM and 1.1 µM; TGI [30]: > 25 µM; GI50 [31]: 0.557 µM and 0.724 µM; TGI [31]: > 22 µM; GI50 [32]: 1.82 µM and 1.49 µM; TGI [32]: > 25 µM; GI50 [33]: 1.12 µM and 1.72 µM; TGI [33]: > 16.9 µM; GI50 [34]: 0.647 µM and 0.946 µM; TGI [34]: 3.23 µM and 8.15 µM; GI50 [35]: 0.442 µM and 0.485 µM; TGI [35]: 1.4 µM and 1.6 µM; GI50 [36]: 0.661 µM and 0.848 µM; TGI [36]: > 25 µM; GI50 [37]: 0.599 µM and 1.3 µM; TGI [37]: 2.3 µM and 4.14 µM; GI50 [38]: 4.19 µM and 6.88 µM; TGI [38]: 16.1 µM and > 25 µM; GI50 [39]: 4.3 µM and 6.17 µM; TGI [39]: 12.3 µM and 14.6 µM; GI50 [40]: 8.62 µM and 6.77 µM; TGI [40]: > 25 µM; GI50 [41]: 3.58 µM and 3.13 µM; TGI [41]: 21.4 µM and 24.8 µM; GI50 [42]: 2.85 µM and 3.83 µM; TGI [42]: 6.87 µM and 8.81 µM; GI50 [43]: 0.701 µM and 0.306 µM; TGI [43]: > 25 µM; GI50 [44]: 1.69 µM and 1.18 µM; TGI [44]: > 25 µM; GI50 [45]: 1.19 µM and 1.28 µM; TGI [45]: > 25 µM; GI50 [46]: 1.14 µM and 0.863 µM; TGI [46]: 9.27 µM and 4.68 µM; GI50 [47]: 1.88 µM and 1.51 µM; TGI [47]: > 25 µM and 18.9 µM; GI50 [48]: 1.21 µM and 2.46 µM; TGI [48]: 6.15 µM and 7.56 µM; GI50 [49]: 1.04 µM and 0.404 µM; TGI [49]: > 25 µM; GI50 [50]: 4.11 µM and 5.33 µM; TGI [50]: 12.1 µM and 16.1 µM; GI50 [51]: 9.78 µM and 24.4 µM; TGI [51]: > 25 µM; GI50 [52]: 0.815 µM and 0.504 µM; TGI [52]: > 11.6 µM and 1.44 µM; GI50 [53]: 1.76 µM and 4.18 µM; TGI [53]: > 25 µM; GI50 [54]: 0.776 µM and 0.855 µM; TGI [54]: > 25 µM; GI50 [55]: 1 µM and 1.3 µM; TGI [55]: 3.7 µM and 3.04 µM; GI50 [56]: 5.72 µM and 7.38 µM; TGI [56]: > 25 µM; GI50 [57]: 0.692 µM and 1.66 µM; TGI [57]: 2.32 µM and 5.75 µM
